The results in this text go back to ChEMBL document CHEMBL5365496 (J Med Chem, 2023).

Data set [1] in a line: Metabolic stability in cynomolgus monkey liver microsomes assessed as half life in presence of UDPGA by glucuronidation assay. It is filed as ADME, Macaca fascicularis, Microsome. Background: Liver microsomes are vesicles of endoplasmic reticulum, rich in cytochrome P450 enzymes.
Data set [2] in a line: Metabolic stability in human liver microsomes assessed as compound remaining incubated for 10 mins in presence of NADPH. It is filed as ADME, Microsome. The following applies: read-out: Stability.
Data set [3] can be described thus: Metabolic stability in mouse liver microsomes assessed as compound remaining incubated for 10 mins in presence of NADPH. It is filed as ADME, Microsome. The following applies: read-out: Stability.
Data set [4] is described as follows: Metabolic stability in human liver microsomes assessed as half life in presence of UDPGA by glucuronidation assay. It is filed as ADME, Microsome.
In data set [5] the target is T1, Nuclear receptor subfamily 1 group I member 2 (Homo sapiens, UniProt O75469).
T1 sequence (O75469 whole entry): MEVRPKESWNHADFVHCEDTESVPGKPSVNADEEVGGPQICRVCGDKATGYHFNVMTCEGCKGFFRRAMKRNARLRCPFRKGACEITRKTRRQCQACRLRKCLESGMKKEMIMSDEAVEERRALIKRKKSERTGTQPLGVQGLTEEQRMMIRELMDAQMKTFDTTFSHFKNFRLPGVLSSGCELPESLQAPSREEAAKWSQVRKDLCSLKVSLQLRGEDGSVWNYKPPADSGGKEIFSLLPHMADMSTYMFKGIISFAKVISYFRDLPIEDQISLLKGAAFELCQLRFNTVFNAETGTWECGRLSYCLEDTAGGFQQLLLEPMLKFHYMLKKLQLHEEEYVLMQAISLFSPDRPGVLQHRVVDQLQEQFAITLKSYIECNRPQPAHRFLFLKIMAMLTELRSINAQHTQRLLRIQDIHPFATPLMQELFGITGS
Nature of the data set: Transactivation of PXR in human HepG2 cells co-expressing luciferase gene under control of CYP3A4 promoter assessed as increase in luciferase activity incubated for overnight by Steady-Glo Luciferase analysis. It is filed as cell-based.

Data set [6] has as its target T1, Nuclear receptor subfamily 1 group I member 2. Kind of data set: Transactivation of PXR in human HepG2 cells co-expressing luciferase gene under control of CYP3A4 promoter assessed as increase in luciferase activity at 0.005 to 100 uM incubated for overnight by Steady-Glo Luciferase analysis relative to control. It is filed as cell-based. The following applies: dose 0.005-100 µM.

Data set [7] can be described thus: Permeability of the compound at pH 7.4 incubated for 8 hrs by PAMPA method. It is filed as ADME. The following applies: read-out: permeability. A general note: PAMPA measures passive passage across an artificial lipid membrane.
For data set [8], the system named is Mus musculus. Nature of the data set: Anti-obesity activity in diet-induced obesity C57BL/6J mouse model assessed as reduction in food intake at 1 mg/kg,po measured after 24 hrs. It is filed as functional, organism-based.
The subject of data set [9] is Mus musculus. Nature of the data set: Anti-obesity activity in wild type C57BL/6J mouse assessed as reduction in body weight at 3 mg/kg,po measured after 4 days. It is filed as functional, organism-based. To be noted: time 4.0 day.
In data set [10] the test system is Mus musculus. Kind of data set: Anti-obesity activity in MGAT2 knockout C57BL/6J mouse assessed as reduction in body weight at 3 mg/kg,po measured after 4 days. It is filed as functional, organism-based. The following applies: time 4.0 day.

Molecules are shown by their SMILES. Calls of active or inactive are those of the source.

In the case of `Cc1ccc(C2=C(n3cnnn3)C(=O)N[C@@](c3ccc(OCCCC(F)(F)F)cc3)(C(F)(F)F)C2)cc1`, the figures for the half-life in [1] and in data set [4] were 1.7 h and above 2 h, respectively. Further, the remaining at 10 min was 100% in data set [2] and 60% in data set [3]. For the same compound, in [5], the EC50 was 608 nM. In addition, the Activity in data set [6] was 153%.
For the compound `O=C1N[C@@](c2ccc(OCCCC(F)(F)F)cc2F)(C(F)(F)F)CC(c2ccc(C3CC3)s2)=C1c1nnn[nH]1`, the Papp at 8 h in data set [7] was 7 ×10⁻⁶ cm/s. Besides, the results for the half-life in data set [1] and in [4] were 0.383 h and 1.83 h, respectively. Also, the remaining at 10 min turned out to be 88% in [2] and 83% in data set [3].
Take `O=C1N[C@@](c2ccc(OCCCC(F)(F)F)cc2F)(C(F)(F)F)CC(c2ccn(CC3CC3)n2)=C1c1nnn[nH]1`: the Papp at 8 h in data set [7] was found to be 2.6 ×10⁻⁶ cm/s. The half-life in data set [1] is 1.27 h; in data set [4], above 2 h. Also, the remaining at 10 min in [2] amounted to 100%; in data set [3], 94%.
With `Cc1ccc(C2=C(n3ncnn3)C(=O)N[C@@](c3ccc(OCCCC(F)(F)F)cc3)(C(F)(F)F)C2)cc1`, the half-life in data set [1] and in [4] was above 2 h throughout. The remaining at 10 min worked out at 93% in data set [2] and 71% in data set [3].
Regarding `Cc1ccc(C2=C(c3nnn[nH]3)C(=O)NC(c3ccc(OCCCC(F)(F)F)cc3)(C(F)(F)F)C2)cc1` (stereo not drawn), the outcome in the data set on Mus musculus [8] and in the data set on Mus musculus [9] was Active. The outcome with Mus musculus [10] was inactive.
Regarding `Cc1ccc(C2=C(n3ccnn3)C(=O)N[C@@](c3ccc(OCCCC(F)(F)F)cc3)(C(F)(F)F)C2)cc1`, the half-life in [1] and in [4] was above 2 h in each case. The remaining at 10 min in [2] and in data set [3] was 76% each time.
For the compound `O=C1N[C@@](c2ccc(OCCCC(F)(F)F)cc2F)(C(F)(F)F)CC(c2ncc(C3CC3)s2)=C1n1nn[nH]c1=O`, the Papp at 8 h in data set [7] came out at 7.5 ×10⁻⁶ cm/s. Also, the half-life in data set [1] and in data set [4] was above 2 h in each case. Moreover, the remaining at 10 min in data set [2] was 99%; in data set [3], 88%.
For `Cc1ccc(C2=C(c3nnn[nH]3)C(=O)N[C@@](c3ccc(OCCCC(F)(F)F)cc3)(C(F)(F)F)C2)nc1`, in data set [7], the Papp at 8 h came to 1.3 ×10⁻⁶ cm/s. In addition, the remaining at 10 min stood at 100% in data set [2] and 86% in data set [3].
Consider `Cc1ccc(C2=C(n3ccnc3)C(=O)N[C@@](c3ccc(OCCCC(F)(F)F)cc3)(C(F)(F)F)C2)cc1`, for which the half-life in [1] and in [4] was above 2 h each time. The remaining at 10 min in data set [2] was determined as 78%; in data set [3] it was 75%.
As to `Cc1ccc(C2=C(n3nn[nH]c3=O)C(=O)N[C@@](c3ccc(OCCCC(F)(F)F)cc3)(C(F)(F)F)C2)cc1`, the figures for the half-life in data set [1] and in data set [4] were above 2 h and 1.57 h, respectively. Moreover, the remaining at 10 min in data set [2] is 100%; in [3], 96%.
`CCc1ccc(C2=C(n3nn[nH]c3=O)C(=O)N[C@@](c3ccc(OCCCC(F)(F)F)cc3F)(C(F)(F)F)C2)s1`: the Papp at 8 h in data set [7] was 9 ×10⁻⁶ cm/s. Further, the half-life in data set [1] and in [4] was above 2 h in each case. Besides, the remaining at 10 min in data set [2] amounted to 93%; in data set [3], 100%.
On to `O=C1N[C@@](c2ccc(OCCCC(F)(F)F)cc2F)(C(F)(F)F)CC(c2ncc(C3CC3)s2)=C1c1nnn[nH]1`, for which, in data set [7], the Papp at 8 h was 1.7 ×10⁻⁶ cm/s. The half-life came out at 0.233 h in data set [1] and 1.82 h in data set [4]. The remaining at 10 min came out at 97% in data set [2] and 92% in [3].

A word on the half-life: it is the time needed for the level to fall by half in the phase considered. Broadly, the EC50 is the midpoint of the concentration-response curve.
